Results taken from patent US20110119780A1, “SCREENING FOR NON-GENOTOXIC CARCINOGENS” (priority 2008, published 2011).
Values joined by “and” are separate entries in the source; they are usually repeats but may differ in a detail not shown here. Equal entries are not always repeated. Where two headings read alike, the source gives them in different places.

Experiments:
Cyp4a protein = details: WT mice; liver microsomes; 50 mg/kg orally x4 daily
Experimental: Henderson, University of Dundee, UK). The standard used was APFO-induced WT rat liver microsomes (1 μg protein loaded).
To investigate the downstream effects of PPARα activation, the expression of Cyp4a proteins was evaluated by immunoblot analysis in liver microsomes from WT and hPPARα mice.
Individual liver microsomal samples were analysed by immunoblotting for Cyp4a. Protein concentration was measured using the CXR microlowry method. Quantification of Cyp4a protein in mouse liver microsomes was carried out. A murine his-tagged Cyp4a recombinant standard was loaded onto the NU-PAGE gel.

[1] = test system: cyanide-insensitive palmitoyl-CoA oxidation; assay: Cyanide-insensitive palmitoyl CoA oxidation in mouse liver (crude mitochondria); assay type: in vivo; details: for PCO oxidation, NAD + red.: crude mitochondrial fraction of liver, 50 mg/kg orally x4 daily, individual mice, 50 mg/kg
Experimental: Measurements of cyanide-insensitive pCoA oxidation in crude mitochondrial fractions were performed as described.

[2] = parameters: species or system mice; details: mouse, in vivo, po, 50 mg/kg
Experimental: Animals were treated either with 4 daily doses of Wy-14,643/corn oil (50 mg/kg, orally) or with corn oil alone, as shown in Table 2. Approximately 24 hr after the last dose, all mice were sacrificed using an increasing concentration of CO2. Liver and plasma were collected for analysis. Following treatment with Wy-14,643 or the vehicle (corn oil), the mice were sacrificed and their livers removed and weighed. […] The concentration of inducing agent was of supplied chemical, without any correction for purity. The volume administered was 10 ml/kg bodyweight. […] On the day of termination the mice were weighed, the body weights recorded, and then transferred to a suitable room for post mortem. Approximately 24 hrs after treatment, the mice will be killed by exposure to a rising concentration of CO2.

[3] = assay type: in vivo, mice; details: for Diluted Chol / Diluted HDL / Diluted LDL / Diluted Trig: dilution factor 2; for Diluted Chol / Diluted HDL / Diluted LDL / Diluted Trig / Normalised Chol / Normalised HDL / Normalised LDL / Normalised Trig: individual mice
Experimental: The plasma was processed by taking blood from the terminated mice by cardiac puncture into lithium/heparin-coated tubes. Following removal into suitable tubes for plasma preparation, terminal blood samples taken by cardiac puncture were mixed on a roller for 10 min then cooled on ice. Red blood cells were removed by centrifugation (2,000-3,000 rpm for 10 min at 8-10° C.). Immediately after centrifugation, the supernatant (plasma) was collected in eppendorfs and kept on wet ice. Plasma was transferred into cryovials for clinical chemistry and immediately flash frozen in liquid nitrogen, then stored at approximately −70° C. […] In order to investigate potential hepatotoxicity caused by Wy-14,643 treatment, markers of liver damage, alanine aminotransferase (ALT), aspartate aminotransferase (AST) and alkaline phosphatase (ALP) were measured in WT and hPPARα mice (Tables 6-8). Liver related plasma biomarkers, albumin (ALB), conjugated and total bilirubin (BIL-D and BIL-T respectively), cholesterol, high density lipoprotein (HDL-C), low density lipoprotein (LDL-C) and triglycerides were also investigated in all available plasma samples in order to characterise basal hepatic function in hPPARα mice relative to WT mice (Tables 9-15).

Cyp4a activity = details: mouse, in vivo
Experimental: Lauric acid hydroxylation activity measurements in liver microsomes were performed.
Liver microsomes from each available animal were evaluated for Cyp4a activity by measuring lauric acid hydroxylation (FIG. 19, Tables 17-18).

[4] = WT mice, plasma, 50 mg/kg orally x4 daily, 50 mg/kg
[5] = WT mice, plasma, 50 mg/kg orally x4 daily, n = 3
[6] = WT mice, plasma, % mean own control
[7] = hPPARα mice, plasma, 50 mg/kg orally x4 daily, 50 mg/kg

## Cc1cccc(Nc2cc(Cl)nc(SCC(=O)O)n2)c1C [Wy-14,643]
Cyp4a protein
  Cyp4a protein expression (immunoblot, 50 kD band): marked induction
[1]; WT mice, % mean own control
  PCO oxidation, % MEAN: 265%
[1]; WT mice
  PCO oxidation, NAD + red.: 79 nmol/min/mg and 73 nmol/min/mg and 82 nmol/min/mg
[1]; WT mice, n = 3
  PCO oxidation, NAD + red., MEAN: 78 nmol/min/mg
[1]; both mouse lines (WT, hPPARα), crude mitochondrial fractions
  cyanide-insensitive pCoA oxidation, induction relative to vehicle controls: approximately 3 fold
[1]; hPPARα mice
  PCO oxidation, NAD + red.: 41 nmol/min/mg and 53 nmol/min/mg
[2]
  Body weights, % Mean: 98%
  Body weights, Mean: 26 g
  Liver body weight ratios, % Mean: 139%
  Liver body weight ratios, Mean: 6.46%
  Liver weights, % Mean: 135%
  Liver weights, Mean: 1.69 g
[3]; WT mice, p<0.05
  triglyceride concentrations, decrease compared to corresponding control mice: ~50%
[3]; [4]
  Diluted Chol: 1.25 mmol/L and 1.02 mmol/L and 1.40 mmol/L
  Diluted HDL: 1.28 mmol/L and 1.02 mmol/L and 1.36 mmol/L
  Diluted LDL: 0.12 mmol/L and 0.08 mmol/L and 0.14 mmol/L
  Diluted Trig: 0.27 mmol/L and 0.21 mmol/L and 0.31 mmol/L
  Normalised Chol: 2.50 mmol/L and 2.04 mmol/L and 2.80 mmol/L
  Normalised HDL: 2.56 mmol/L and 2.04 mmol/L and 2.72 mmol/L
  Normalised LDL: 0.24 mmol/L and 0.16 mmol/L and 0.28 mmol/L
  Normalised Trig: 0.54 mmol/L and 0.42 mmol/L and 0.62 mmol/L
[3]; [5]
  Cholesterol, Mean: 2.45 mmol/L
  HDL, Mean: 2.44 mmol/L
  LDL, Mean: 0.23 mmol/L
  Triglycerides, Mean: 0.53 mmol/L
[3]; [6]
  Cholesterol, % Mean: 97%
  HDL, % Mean: 103%
  LDL, % Mean: 89%
  Triglycerides, % Mean: 56%
[3]; [7]
  Diluted Chol: 1.18 mmol/L and 1.47 mmol/L
  Diluted HDL: 1.14 mmol/L and 1.46 mmol/L
  Diluted LDL: 0.07 mmol/L and 0.11 mmol/L
  Diluted Trig: 0.64 mmol/L and 0.60 mmol/L
  Normalised Chol: 2.36 mmol/L and 2.94 mmol/L
  Normalised HDL: 2.28 mmol/L and 2.92 mmol/L
  Normalised LDL: 0.14 mmol/L and 0.22 mmol/L
  Normalised Trig: 1.28 mmol/L and 1.20 mmol/L
[3]; mouse, in vivo
  ALP, % Mean: 129%
  ALT, % Mean: 117%
  AST, % Mean: 121%
  Albumin, % Mean: 101%
  BIL-D, % Mean: 22%
  BIL-T, % Mean: 69%
[3]; mouse, in vivo, po, 50 mg/kg
  ALP, Mean: 129 U/L
  ALT, AST and ALP concentration (plasma markers of hepatotoxicity): unaltered
  ALT, Mean: 34 U/L
  AST, Mean: 119 U/L
  Albumin, Mean: 38 g/L
  BIL-D, Mean: 0.08 µmol/L
  BIL-T, Mean: 17 µmol/L
  Plasma albumin levels: unaltered
[3]; the two hPPARα mice
  triglyceride concentrations, decrease compared to corresponding control mice: 25% and 29%
Cyp4a activity
  Formation of 11-OH lauric acid, % MEAN: 308%
  Formation of 11-OH lauric acid, MEAN: 3.0 nmol/min/mg
  Formation of 12-OH lauric acid, % MEAN: 1669%
  Formation of 12-OH lauric acid, MEAN: 9.2 nmol/min/mg
